Assay [1] addresses T1, Serine/threonine-protein kinase Nek2 (Homo sapiens) (UniProt P51955).
T1 sequence (whole entry): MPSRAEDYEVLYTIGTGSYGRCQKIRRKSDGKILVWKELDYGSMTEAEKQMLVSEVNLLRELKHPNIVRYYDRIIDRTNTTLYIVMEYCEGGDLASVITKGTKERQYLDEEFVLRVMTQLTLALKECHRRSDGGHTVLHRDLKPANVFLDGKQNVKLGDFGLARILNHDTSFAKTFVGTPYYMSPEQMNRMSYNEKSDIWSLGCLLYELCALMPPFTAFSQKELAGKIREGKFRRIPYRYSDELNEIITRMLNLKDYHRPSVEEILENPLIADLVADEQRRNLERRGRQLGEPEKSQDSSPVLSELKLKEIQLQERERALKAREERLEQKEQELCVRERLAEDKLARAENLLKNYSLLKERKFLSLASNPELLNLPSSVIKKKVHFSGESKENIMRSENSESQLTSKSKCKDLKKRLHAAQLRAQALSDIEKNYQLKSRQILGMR
Briefly: Inhibition of human full length NEK2 expressed in baculovirus assessed as substrate phosphorylation using fluorescence-labelled peptides as substrate at 0.2 uM after 90 mins by microfluidic peptide phosphorylation assay.

Assay [2] addresses Tyrosine-protein kinase ABL2 (Homo sapiens) (UniProt P42684). Briefly: Inhibition of human truncated Arg expressed in baculovirus assessed as substrate phosphorylation using fluorescence-labelled peptides as substrate at 0.2 uM after 90 mins by microfluidic peptide phosphorylation assay.
Assay [3] concerns the target Ribosomal protein S6 kinase alpha-4 (Homo sapiens) (UniProt O75676). Briefly: Inhibition of human full length MSK2 expressed in baculovirus assessed as substrate phosphorylation using fluorescence-labelled peptides as substrate at 0.1 uM after 90 mins by microfluidic peptide phosphorylation assay.
Assay [4] concerns the target Tyrosine-protein kinase HCK (Homo sapiens) (UniProt P08631). Briefly: Inhibition of human HCK catalytic domain expressed in baculovirus assessed as substrate phosphorylation using fluorescence-labelled peptides as substrate at 95 uM after 90 mins by microfluidic peptide phosphorylation assay.
The target of assay [5] is T2, Protein kinase C zeta type (Homo sapiens) (UniProt Q05513).
T2 sequence (whole entry): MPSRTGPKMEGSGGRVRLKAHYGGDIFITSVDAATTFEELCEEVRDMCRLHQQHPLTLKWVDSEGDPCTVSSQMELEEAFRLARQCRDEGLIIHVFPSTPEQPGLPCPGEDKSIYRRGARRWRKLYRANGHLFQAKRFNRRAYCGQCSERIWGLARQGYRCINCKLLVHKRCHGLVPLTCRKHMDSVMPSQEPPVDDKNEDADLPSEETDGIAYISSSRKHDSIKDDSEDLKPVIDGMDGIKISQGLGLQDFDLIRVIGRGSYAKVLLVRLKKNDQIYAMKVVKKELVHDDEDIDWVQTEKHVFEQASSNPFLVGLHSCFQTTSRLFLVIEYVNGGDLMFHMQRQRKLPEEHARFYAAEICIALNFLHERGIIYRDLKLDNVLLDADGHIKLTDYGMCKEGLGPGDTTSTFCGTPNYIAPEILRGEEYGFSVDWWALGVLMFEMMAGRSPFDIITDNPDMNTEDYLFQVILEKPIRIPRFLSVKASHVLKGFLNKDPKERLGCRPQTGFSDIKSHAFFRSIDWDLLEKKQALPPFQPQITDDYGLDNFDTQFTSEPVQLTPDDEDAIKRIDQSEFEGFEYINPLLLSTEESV
Briefly: Inhibition of human full length PKC zeta expressed in baculovirus assessed as substrate phosphorylation using fluorescence-labelled peptides as substrate at 95 uM after 90 mins by microfluidic peptide phosphorylation assay.

For assay [6], the target named is T3, Inhibitor of nuclear factor kappa-B kinase subunit beta (Homo sapiens) (UniProt O14920).
T3 sequence (whole entry): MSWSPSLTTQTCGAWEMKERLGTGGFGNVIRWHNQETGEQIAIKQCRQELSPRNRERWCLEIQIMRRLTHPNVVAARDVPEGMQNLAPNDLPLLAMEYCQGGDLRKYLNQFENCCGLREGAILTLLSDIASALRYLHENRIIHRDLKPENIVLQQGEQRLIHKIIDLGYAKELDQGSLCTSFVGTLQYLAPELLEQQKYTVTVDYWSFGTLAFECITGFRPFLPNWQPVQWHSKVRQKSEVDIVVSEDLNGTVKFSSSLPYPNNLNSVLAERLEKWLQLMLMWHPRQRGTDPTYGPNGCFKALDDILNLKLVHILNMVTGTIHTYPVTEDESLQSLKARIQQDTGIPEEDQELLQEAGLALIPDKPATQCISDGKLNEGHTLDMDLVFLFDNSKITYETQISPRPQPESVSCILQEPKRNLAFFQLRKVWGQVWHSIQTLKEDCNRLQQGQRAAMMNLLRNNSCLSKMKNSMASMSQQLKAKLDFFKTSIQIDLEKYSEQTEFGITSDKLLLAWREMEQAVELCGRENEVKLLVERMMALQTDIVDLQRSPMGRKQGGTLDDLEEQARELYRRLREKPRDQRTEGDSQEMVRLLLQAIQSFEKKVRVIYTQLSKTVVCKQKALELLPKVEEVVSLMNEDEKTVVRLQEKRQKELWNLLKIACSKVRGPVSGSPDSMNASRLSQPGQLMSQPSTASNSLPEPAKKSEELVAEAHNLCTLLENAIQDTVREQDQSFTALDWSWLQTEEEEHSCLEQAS
Briefly: Inhibition of human full length IKK beta expressed in baculovirus assessed as substrate phosphorylation using fluorescence-labelled peptides as substrate at 95 uM after 90 mins by microfluidic peptide phosphorylation assay.

Assay [7] deals with T4, Mitogen-activated protein kinase 13 (Homo sapiens) (UniProt O15264).
T4 sequence (whole entry): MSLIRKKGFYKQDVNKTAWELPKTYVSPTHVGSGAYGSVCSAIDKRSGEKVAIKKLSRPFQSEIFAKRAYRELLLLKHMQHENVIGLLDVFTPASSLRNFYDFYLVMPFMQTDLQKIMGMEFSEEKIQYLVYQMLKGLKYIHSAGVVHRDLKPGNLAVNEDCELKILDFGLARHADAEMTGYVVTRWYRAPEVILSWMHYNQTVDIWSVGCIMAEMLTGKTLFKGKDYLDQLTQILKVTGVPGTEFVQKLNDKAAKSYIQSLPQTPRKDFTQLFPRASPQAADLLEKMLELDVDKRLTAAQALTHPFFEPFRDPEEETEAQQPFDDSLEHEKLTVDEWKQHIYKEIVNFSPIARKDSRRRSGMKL
Briefly: Inhibition of human full length p38 delta expressed in Escherichia coli cell assessed as substrate phosphorylation using fluorescence-labelled peptides as substrate at 8 uM after 90 mins by microfluidic peptide phosphorylation assay.

Assay [8] deals with Mitogen-activated protein kinase 14 (Homo sapiens) (UniProt Q16539). Briefly: Inhibition of human truncated p38 alpha expressed in Escherichia coli cell assessed as substrate phosphorylation using fluorescence-labelled peptides as substrate at 2 uM after 90 mins by microfluidic peptide phosphorylation assay.
Assay [9] addresses Ribosomal protein S6 kinase alpha-4 (Homo sapiens) (UniProt O75676). Briefly: Inhibition of human full length MSK2 expressed in baculovirus assessed as substrate phosphorylation using fluorescence-labelled peptides as substrate at 70 uM after 90 mins by microfluidic peptide phosphorylation assay.

Ribosomal protein S6 kinase alpha-4 (Homo sapiens), sequence (O75676 whole entry, looked up, the tested form may be a part): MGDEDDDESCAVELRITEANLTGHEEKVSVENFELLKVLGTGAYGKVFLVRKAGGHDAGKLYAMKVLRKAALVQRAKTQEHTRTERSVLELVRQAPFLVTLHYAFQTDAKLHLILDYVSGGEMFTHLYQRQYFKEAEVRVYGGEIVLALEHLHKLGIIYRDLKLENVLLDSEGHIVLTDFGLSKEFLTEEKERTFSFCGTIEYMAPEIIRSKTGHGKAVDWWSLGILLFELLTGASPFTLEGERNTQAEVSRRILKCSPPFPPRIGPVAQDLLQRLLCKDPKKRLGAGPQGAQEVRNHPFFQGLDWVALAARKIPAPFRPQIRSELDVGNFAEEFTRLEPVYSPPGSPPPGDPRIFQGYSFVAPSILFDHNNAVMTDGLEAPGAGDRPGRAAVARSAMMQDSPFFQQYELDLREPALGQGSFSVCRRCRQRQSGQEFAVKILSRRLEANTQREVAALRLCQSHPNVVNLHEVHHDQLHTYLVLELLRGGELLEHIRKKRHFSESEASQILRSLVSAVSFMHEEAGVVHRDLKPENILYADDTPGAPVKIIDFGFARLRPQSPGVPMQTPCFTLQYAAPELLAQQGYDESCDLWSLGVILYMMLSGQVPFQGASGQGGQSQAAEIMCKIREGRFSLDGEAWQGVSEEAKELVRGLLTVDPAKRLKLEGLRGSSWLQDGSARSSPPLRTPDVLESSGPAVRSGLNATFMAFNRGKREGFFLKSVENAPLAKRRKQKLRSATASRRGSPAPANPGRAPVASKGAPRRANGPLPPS
Tyrosine-protein kinase HCK (Homo sapiens), sequence (P08631 2-526 limits assumed): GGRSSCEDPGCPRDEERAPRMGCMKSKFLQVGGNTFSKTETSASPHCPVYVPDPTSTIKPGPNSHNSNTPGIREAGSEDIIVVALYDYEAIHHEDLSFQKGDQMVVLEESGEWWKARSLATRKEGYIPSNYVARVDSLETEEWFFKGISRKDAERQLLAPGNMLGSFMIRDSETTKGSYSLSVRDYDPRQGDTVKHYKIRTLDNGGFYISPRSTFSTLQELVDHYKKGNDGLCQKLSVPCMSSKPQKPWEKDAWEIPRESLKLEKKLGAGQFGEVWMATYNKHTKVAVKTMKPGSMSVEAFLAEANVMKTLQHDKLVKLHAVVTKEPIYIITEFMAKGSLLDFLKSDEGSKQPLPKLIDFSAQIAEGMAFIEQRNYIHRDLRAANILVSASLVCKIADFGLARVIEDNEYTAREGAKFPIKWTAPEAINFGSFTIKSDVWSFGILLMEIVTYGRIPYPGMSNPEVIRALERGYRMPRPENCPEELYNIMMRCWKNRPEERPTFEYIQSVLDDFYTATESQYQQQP
Tyrosine-protein kinase ABL2 (Homo sapiens), sequence (P42684 whole entry, the tested form may be a part): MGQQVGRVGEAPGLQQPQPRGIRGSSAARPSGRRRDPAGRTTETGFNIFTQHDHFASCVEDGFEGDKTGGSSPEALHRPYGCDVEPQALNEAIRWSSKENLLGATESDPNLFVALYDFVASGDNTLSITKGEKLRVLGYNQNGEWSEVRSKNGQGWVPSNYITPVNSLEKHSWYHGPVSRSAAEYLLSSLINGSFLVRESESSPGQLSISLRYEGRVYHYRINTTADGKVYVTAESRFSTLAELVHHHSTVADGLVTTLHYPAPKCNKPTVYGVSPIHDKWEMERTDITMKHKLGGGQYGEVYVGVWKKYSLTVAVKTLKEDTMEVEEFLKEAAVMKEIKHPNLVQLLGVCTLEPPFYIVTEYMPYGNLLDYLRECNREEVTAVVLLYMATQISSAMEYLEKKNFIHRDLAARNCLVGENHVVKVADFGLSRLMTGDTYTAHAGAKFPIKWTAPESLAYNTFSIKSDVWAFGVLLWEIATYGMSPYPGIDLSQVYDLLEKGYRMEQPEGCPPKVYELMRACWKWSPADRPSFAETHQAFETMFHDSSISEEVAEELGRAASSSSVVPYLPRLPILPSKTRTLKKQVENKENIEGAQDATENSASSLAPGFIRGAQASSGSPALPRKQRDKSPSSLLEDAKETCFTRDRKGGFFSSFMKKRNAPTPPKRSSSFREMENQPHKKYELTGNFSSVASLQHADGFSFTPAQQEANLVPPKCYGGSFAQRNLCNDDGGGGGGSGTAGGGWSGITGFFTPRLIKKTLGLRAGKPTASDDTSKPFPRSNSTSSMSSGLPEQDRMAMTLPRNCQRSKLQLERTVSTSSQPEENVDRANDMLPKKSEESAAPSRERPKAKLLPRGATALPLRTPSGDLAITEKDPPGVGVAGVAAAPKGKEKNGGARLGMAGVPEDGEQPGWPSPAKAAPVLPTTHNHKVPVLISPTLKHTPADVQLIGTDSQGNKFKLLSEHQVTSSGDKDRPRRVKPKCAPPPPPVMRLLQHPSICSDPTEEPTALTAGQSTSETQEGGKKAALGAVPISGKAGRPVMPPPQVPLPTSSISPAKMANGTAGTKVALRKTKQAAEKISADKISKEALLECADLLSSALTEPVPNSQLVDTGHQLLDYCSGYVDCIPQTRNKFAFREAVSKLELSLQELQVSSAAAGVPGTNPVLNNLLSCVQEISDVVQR
Mitogen-activated protein kinase 14 (Homo sapiens), sequence (Q16539 whole entry, the tested form may be a part): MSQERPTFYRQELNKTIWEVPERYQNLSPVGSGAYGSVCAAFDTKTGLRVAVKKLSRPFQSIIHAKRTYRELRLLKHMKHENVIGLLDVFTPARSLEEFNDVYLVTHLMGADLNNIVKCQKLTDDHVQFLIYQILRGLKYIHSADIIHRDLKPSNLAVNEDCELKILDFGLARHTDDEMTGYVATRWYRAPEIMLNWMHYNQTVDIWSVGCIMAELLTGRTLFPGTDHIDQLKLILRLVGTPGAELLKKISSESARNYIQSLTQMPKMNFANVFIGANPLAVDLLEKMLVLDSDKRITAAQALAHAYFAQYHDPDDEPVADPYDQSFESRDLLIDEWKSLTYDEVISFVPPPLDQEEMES

Regarding `Clc1ccc(C2(c3ccc(-c4ncnc5[nH]cnc45)cc3)CCNCC2)cc1`, the inhibition in [1] and in assay [2] was 4.5% in each case.

Regarding `C[C@H](CN(C)C)Oc1nc(Nc2cc3cccc(Cl)c3cn2)cnc1C#N`, the inhibition in [3] came to 13.5%.

For the compound `NCCc1ccc(-c2ncnc3[nH]cnc23)cc1`, the inhibition in [4] was 48.5%; in assay [5] it was 0%; in assay [6], 91%.

For `NCC1CCN(c2ncnc3[nH]ccc23)CC1`, the inhibition in assay [7] was 5.5%.

Regarding `NC1CCN(c2ncnc3[nH]ccc23)CC1`, in assay [8], the inhibition is 2%.

With `CNCc1ccc(-c2ncnc3[nH]cnc23)cc1`, the inhibition in assay [9] was 68%.

The record behind these values is ChEMBL document CHEMBL3132769, “Fragment growing to retain or alter the selectivity of anchored kinase hinge-binding fragments” (Medchemcomm, 2014).
